From PubChem BioAssay AID2060513 (Molecular Pharmacology Branch, DTP, NCI, 2025)

Tested on: 299254-011-R-J1-PDC complex spheroids viability
Assay: Anticancer human tumor 299254-011-R-J1-PDC patient-derived melanoma cell line growth inhibition [GQUAD]
Conditions: for IC50: curve of first compound; for viability, T/C: stronger effect = lower value
Procedure, shortened: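 Tumor cells were grown as complex spheroids with HUVEC endothelial cells and mesenchymal stem cells as stroma. G-quadruplex stabilizers were combined with targeted agents over half-log dilutions from near the clinical Cmax, or from 10 microM.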

[1] = second compound 0.0316 µM, first compound 0.0316 µM
[2] = second compound 0.0316 µM, first compound 0.1 µM
[3] = second compound 0.0316 µM, first compound 0.316 µM
[4] = second compound 0.0316 µM, first compound 1 µM
[5] = second compound 0.0316 µM, first compound 3.16 µM
[6] = second compound 0.0316 µM, first compound 10 µM
[7] = second compound 0.1 µM, first compound 0.0316 µM
[8] = second compound 0.1 µM, first compound 0.1 µM
[9] = second compound 0.1 µM, first compound 0.316 µM
[10] = second compound 0.1 µM, first compound 1 µM
[11] = second compound 0.1 µM, first compound 3.16 µM
[12] = second compound 0.1 µM, first compound 10 µM
[13] = second compound 0.316 µM, first compound 0.0316 µM
[14] = second compound 0.316 µM, first compound 0.1 µM
[15] = second compound 0.316 µM, first compound 0.316 µM
[16] = second compound 0.316 µM, first compound 1 µM
[17] = second compound 0.316 µM, first compound 3.16 µM
[18] = second compound 0.316 µM, first compound 10 µM
[19] = second compound 1 µM, first compound 0.0316 µM
[20] = second compound 1 µM, first compound 0.1 µM
[21] = second compound 1 µM, first compound 0.316 µM
[22] = second compound 1 µM, first compound 1 µM
[23] = second compound 1 µM, first compound 3.16 µM
[24] = second compound 1 µM, first compound 10 µM
[25] = second compound 3.16 µM, first compound 0.0316 µM
[26] = second compound 3.16 µM, first compound 0.1 µM
[27] = second compound 3.16 µM, first compound 0.316 µM
[28] = second compound 3.16 µM, first compound 1 µM
[29] = second compound 3.16 µM, first compound 3.16 µM
[30] = second compound 3.16 µM, first compound 10 µM
[31] = second compound 10 µM, first compound 0.0316 µM
[32] = second compound 10 µM, first compound 0.1 µM
[33] = second compound 10 µM, first compound 0.316 µM
[34] = second compound 10 µM, first compound 1 µM
[35] = second compound 10 µM, first compound 3.16 µM
[36] = second compound 10 µM, first compound 10 µM
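Further: spheroids exposed to the agents for seven days before readout.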
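Wherever viability, T/C is given: percent viability relative to DMSO vehicle control wells = 100%.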

Compound: Cc1cccc(N(C)C(=O)C2C(O)CCN2c2nc(C)cc(C(F)(F)F)c2C#N)c1 (centres undefined) + CN(C)c1ccc(Nc2c3ccc(NC(=O)CCN4CCCC4)cc3nc3cc(NC(=O)CCN4CCCC4)ccc23)cc1
- IC50 (second compound 0.0316 µM): > 10000 nM
- IC50 (second compound 0.1 µM): > 10000 nM
- IC50 (second compound 0.316 µM): > 10000 nM
- IC50 (second compound 1 µM): > 10000 nM
- IC50 (second compound 3.16 µM): > 10000 nM
- IC50 (second compound 10 µM): > 10000 nM
- viability, T/C [1]: 118%
- viability, T/C [2]: 96.8%
- viability, T/C [3]: 84.9%
- viability, T/C [4]: 80.5%
- viability, T/C [5]: 99.2%
- viability, T/C [6]: 86%
- viability, T/C [7]: 116%
- viability, T/C [8]: 84.9%
- viability, T/C [9]: 89.2%
- viability, T/C [10]: 83.4%
- viability, T/C [11]: 90.4%
- viability, T/C [12]: 81.5%
- viability, T/C [13]: 103%
- viability, T/C [14]: 100%
- viability, T/C [15]: 90.5%
- viability, T/C [16]: 103%
- viability, T/C [17]: 95.6%
- viability, T/C [18]: 103%
- viability, T/C [19]: 94.9%
- viability, T/C [20]: 105%
- viability, T/C [21]: 99.5%
- viability, T/C [22]: 100%
- viability, T/C [23]: 105%
- viability, T/C [24]: 81.3%
- viability, T/C [25]: 108%
- viability, T/C [26]: 99.6%
- viability, T/C [27]: 98.6%
- viability, T/C [28]: 108%
- viability, T/C [29]: 84.1%
- viability, T/C [30]: 80.4%
- viability, T/C [31]: 102%
- viability, T/C [32]: 79.4%
- viability, T/C [33]: 98.7%
- viability, T/C [34]: 110%
- viability, T/C [35]: 77.4%
- viability, T/C [36]: 67.6%

Compound: C=CCn1c(=O)c2cnc(Nc3ccc(N4CCN(C)CC4)cc3)nc2n1-c1cccc(C(C)(C)O)n1 + Cc1[nH]c2ccc(F)cc2c1-c1nc2c3cccnc3c3ncccc3c2[nH]1
- IC50 (second compound 0.0316 µM): 1960 nM
- IC50 (second compound 0.1 µM): 1460 nM
- IC50 (second compound 0.316 µM): 2120 nM
- IC50 (second compound 1 µM): 2070 nM
- IC50 (second compound 3.16 µM): 1560 nM
- IC50 (second compound 10 µM): 929 nM
- viability, T/C [1]: 95.6%
- viability, T/C [2]: 101%
- viability, T/C [3]: 101%
- viability, T/C [4]: 69.8%
- viability, T/C [5]: 37.3%
- viability, T/C [6]: 29.8%
- viability, T/C [7]: 117%
- viability, T/C [8]: 112%
- viability, T/C [9]: 115%
- viability, T/C [10]: 59.2%
- viability, T/C [11]: 33.2%
- viability, T/C [12]: 29.2%
- viability, T/C [13]: 108%
- viability, T/C [14]: 108%
- viability, T/C [15]: 94%
- viability, T/C [16]: 70.4%
- viability, T/C [17]: 39.1%
- viability, T/C [18]: 25%
- viability, T/C [19]: 109%
- viability, T/C [20]: 92.7%
- viability, T/C [21]: 92.9%
- viability, T/C [22]: 66.2%
- viability, T/C [23]: 39.4%
- viability, T/C [24]: 23.6%
- viability, T/C [25]: 86.1%
- viability, T/C [26]: 91%
- viability, T/C [27]: 102%
- viability, T/C [28]: 62.3%
- viability, T/C [29]: 33%
- viability, T/C [30]: 27.8%
- viability, T/C [31]: 94.4%
- viability, T/C [32]: 81.9%
- viability, T/C [33]: 85.9%
- viability, T/C [34]: 46.9%
- viability, T/C [35]: 26.4%
- viability, T/C [36]: 19.4%
